Data on two compounds can be found in patent US11725096B2, “Zinc oxide complexes” (MARY KAY INC., priority 2010, dated 2023).

The conditions of data set [1]: cited from earlier work.
The procedure of data set [2]: To further test solubility of the zinc oxide/lactic acid complexes in a solution comprising lactic acid and water, increasing amounts of lactic acid were added to 0.725 g zinc oxide/lactic acid complexes. Specifically, the following amounts of 88% lactic acid were added to the zinc oxide/lactic acid complexes in 10 Ml deionized water: 0.0273 g, 0.0262 g, 0.0345 g, 0.0575 g, 0.0757 g, 0.1166 g, 0.1562 g, 0.1389 g, 0.1486 g, and 0.2810 g. Approximately 0.3 g zinc oxide/lactic acid complexes were also mixed with 0.0670 g or 0.2517 g 88% lactic acid.

Data set [3] in a line: Solubility / dissociation of the complexes in water. The conditions noted are these: approximately 0.1 g in 10 Ml deionized water, after standing overnight. The protocol:
Zinc oxide and lactic acid were mixed in an ethanol solution (reagent grade ethyl alcohol denatured with methanol and isopropyl alcohol) containing approximately 10% water at room temperature with continuous stirring using a magnetic stirrer. […] The crystals were isolated by filtering.
(§1) Specifically, approximately 0.1 g zinc oxide/lactic acid was dissolved in 10 Ml of deionized water via vortexing. […] Specifically, approximately 0.1 g zinc oxide was mixed in 10 Ml sodium lactate solution (containing approximately 0.88 g sodium lactate in 10 Ml deionized water). The mixture was vortexed to dissolve the particles such that no large visible particles remained.

Data set [4] is classed as physicochemical. As to the method: as §1

As to `[O]=[Zn]` [Zinc oxide, zinc oxide], in data set [1], the “solubility in neutral aqueous solutions” value is “nearly insoluble”.
With `CC1[O][Zn]2([OH])([O]C1=O)[O]C(=O)C(C)[O]2` (centres unmarked) [zinc oxide/lactic acid complexes], the “solubility in lactic acid and water (appearance of the mixture)” value in data set [2] is recorded as “milky mixture that settles upon standing”. The “Ph of the mixture in water” value in data set [3] is “approximately 6”. In addition, the “solubility in sodium lactate” value in data set [4] is “soluble in sodium lactate”. Also, the “Ph of the mixture in sodium lactate solution” value in data set [4] (approximately 0.1 g in 10 Ml sodium lactate solution, overnight) is reported as “approximately 6”.
